# Experiments:
# Nav1.5 = target: T1, Nav1.5 (Homo sapiens, UniProt Q14524); test: IonWorks electrophysiological assay; type: cell-based; details: 1 μM
# T1 construct: expressed in transfected cells
# Description: (§1) The stock solution was transferred to a master plate and into assay plates where 2 μl per well of the solution were placed. On the day of the assay, 198 μl of external solution containing the appropriate DMSO concentration was added and mixed thoroughly. This provided a 1:100 dilution. A further 1:3 dilution occurred upon addition to the cells in the IonWorks, giving a 1:300 dilution in total. On each assay plate, at least 8 wells were reserved for vehicle control (0.3% DMSO) and at least 8 wells for each positive control specific to the cell line tested. The positive controls were tested at a maximal blocking and an approximate IC50 concentration. The compounds used for positive controls: Nav1.5 100 μM and 5 mM Lidocaine, Kv4.3/KChIP2 20 μM and 500 μM Quinidine, Cav1.2 1 μM and 100 μM Nitrendipine, Kv1.5 300 μM and 10 mM 4-AP, KCNQ1/minK 10 μM and 100 μM Chromanol 293B, hERG 0.1 μM and 1 μM Cisapride, HCN4 50 μM and 3 mM Cesium, Kir2.1 20 μM and 500 μM Barium.
# Kv1.5 = target: T2, Kv1.5 (Homo sapiens, UniProt P22460); test: IonWorks electrophysiological assay; type: cell-based; details: 1 μM
# T2 construct: expressed in transfected cells
# T2 sequence (P22460 whole entry): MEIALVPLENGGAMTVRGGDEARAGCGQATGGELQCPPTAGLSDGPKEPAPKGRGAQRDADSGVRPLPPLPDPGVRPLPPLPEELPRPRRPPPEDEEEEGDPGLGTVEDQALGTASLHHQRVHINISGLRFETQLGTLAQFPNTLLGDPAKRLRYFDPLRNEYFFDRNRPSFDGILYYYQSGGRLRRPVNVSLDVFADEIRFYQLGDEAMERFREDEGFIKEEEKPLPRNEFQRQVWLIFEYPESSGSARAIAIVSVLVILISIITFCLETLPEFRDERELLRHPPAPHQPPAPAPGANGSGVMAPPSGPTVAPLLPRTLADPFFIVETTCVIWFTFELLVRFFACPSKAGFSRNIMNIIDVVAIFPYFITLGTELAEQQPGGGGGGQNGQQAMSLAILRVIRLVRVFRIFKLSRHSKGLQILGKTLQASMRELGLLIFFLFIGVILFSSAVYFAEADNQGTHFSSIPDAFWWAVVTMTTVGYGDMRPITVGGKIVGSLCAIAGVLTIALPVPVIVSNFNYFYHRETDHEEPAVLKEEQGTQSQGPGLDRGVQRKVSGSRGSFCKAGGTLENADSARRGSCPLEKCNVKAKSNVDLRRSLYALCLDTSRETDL
# Description: as §1
# hERG = target: T3, hERG (Homo sapiens, UniProt Q12809); test: IonWorks electrophysiological assay; type: cell-based; details: 1 μM
# T3 construct: expressed in transfected cells
# T3 sequence (Q12809 whole entry): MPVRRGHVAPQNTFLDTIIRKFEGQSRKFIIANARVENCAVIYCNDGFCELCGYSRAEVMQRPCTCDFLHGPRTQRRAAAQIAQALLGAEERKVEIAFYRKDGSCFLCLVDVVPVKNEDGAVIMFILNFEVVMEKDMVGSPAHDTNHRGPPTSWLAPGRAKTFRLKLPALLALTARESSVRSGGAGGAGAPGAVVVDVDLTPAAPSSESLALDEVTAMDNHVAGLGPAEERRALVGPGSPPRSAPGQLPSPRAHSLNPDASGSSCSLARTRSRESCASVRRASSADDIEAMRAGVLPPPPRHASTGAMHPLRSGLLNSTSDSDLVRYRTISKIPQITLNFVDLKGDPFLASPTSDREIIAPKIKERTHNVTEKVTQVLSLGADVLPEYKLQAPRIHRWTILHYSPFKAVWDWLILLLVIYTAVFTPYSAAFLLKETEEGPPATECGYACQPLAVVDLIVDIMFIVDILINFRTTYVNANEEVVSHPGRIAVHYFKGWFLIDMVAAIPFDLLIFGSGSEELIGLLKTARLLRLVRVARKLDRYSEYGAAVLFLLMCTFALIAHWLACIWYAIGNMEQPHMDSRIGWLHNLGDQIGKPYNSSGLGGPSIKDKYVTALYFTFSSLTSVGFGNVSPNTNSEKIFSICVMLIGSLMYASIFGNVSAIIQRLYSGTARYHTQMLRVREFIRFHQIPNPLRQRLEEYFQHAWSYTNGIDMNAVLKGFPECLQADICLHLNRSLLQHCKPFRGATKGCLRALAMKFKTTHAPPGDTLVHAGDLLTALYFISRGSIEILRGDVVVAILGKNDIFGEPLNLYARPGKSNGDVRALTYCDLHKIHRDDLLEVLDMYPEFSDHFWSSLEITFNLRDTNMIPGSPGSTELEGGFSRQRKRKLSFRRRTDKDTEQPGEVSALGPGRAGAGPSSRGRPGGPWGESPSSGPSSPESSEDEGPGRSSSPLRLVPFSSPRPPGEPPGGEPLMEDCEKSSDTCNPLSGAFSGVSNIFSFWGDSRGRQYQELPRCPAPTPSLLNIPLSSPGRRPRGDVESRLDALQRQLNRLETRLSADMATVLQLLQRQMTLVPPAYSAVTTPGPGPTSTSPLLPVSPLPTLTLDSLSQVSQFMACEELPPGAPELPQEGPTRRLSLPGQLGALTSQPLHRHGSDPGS
# Description: as §1
# Cav1.2 = target: T4, Cav1.2 (Homo sapiens, UniProt Q13936); test: IonWorks electrophysiological assay; type: cell-based; details: 1 μM
# T4 construct: expressed in transfected cells
# Description: as §1
# V1bR = target: T5, V1bR (Homo sapiens, UniProt P47901); test: 3H-AVP competition binding on V1bR membranes; details: toxin at 1 μM
# T5 sequence (P47901 1-424): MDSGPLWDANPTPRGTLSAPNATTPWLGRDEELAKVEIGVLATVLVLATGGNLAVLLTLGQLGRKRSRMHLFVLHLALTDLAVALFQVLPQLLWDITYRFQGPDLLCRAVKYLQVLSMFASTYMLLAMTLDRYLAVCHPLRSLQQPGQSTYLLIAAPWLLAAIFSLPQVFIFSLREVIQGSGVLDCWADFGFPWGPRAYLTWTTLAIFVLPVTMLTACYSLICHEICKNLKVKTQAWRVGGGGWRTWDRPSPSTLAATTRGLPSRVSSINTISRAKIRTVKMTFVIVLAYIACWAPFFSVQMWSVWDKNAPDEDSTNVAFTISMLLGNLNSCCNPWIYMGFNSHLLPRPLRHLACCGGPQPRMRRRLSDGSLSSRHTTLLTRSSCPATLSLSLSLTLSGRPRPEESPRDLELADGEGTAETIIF
# Description: (§2) Membranes from cells expressing vasopressin receptors were purchased from […] (Courtaboeuf, France). Binding experiments were performed with ^3H-AVP ([…], Courtaboeuf, France) in 96-well plates. Reaction mixtures contained 50 mM Tris-HCl, pH 7.4, 10 mM MgCl2 and 1 g/L BSA in a final volume of 100 μL. Plates were incubated for 3 h at room temperature. Binding reactions were stopped by filtration through a GF/C filter pre-soaked in 0.5% polyethyleneimine on a cell harvester ([…], Courtaboeuf, France) and plates were dried. Ultimagold O (25 μl; […]) was added to each well and samples were counted using a TopCount counter ([…], Courtaboeuf, France) (Counting yield of 55%). […] A one-site inhibition mass action curve was fitted to inhibition binding data using Kaleidagraph (SYNERGY SOFTWARE, Reading, Pa., USA). IC50 values were converted to Ki for competition experiments using the Cheng-Prusoff equation (Cheng et al., Biochem. Pharmacol., 1973, 22, 3099-3108).
# [1] = target: vasopressin V2 receptor subtype (V2R) (Homo sapiens, UniProt P30518); test: 3H-AVP competition binding on V2R membranes; details: affinity for the V2R, equilibrium binding, 3H-AVP (FIG. 2)
# vasopressin V2 receptor subtype (V2R), sequence (P30518 whole entry): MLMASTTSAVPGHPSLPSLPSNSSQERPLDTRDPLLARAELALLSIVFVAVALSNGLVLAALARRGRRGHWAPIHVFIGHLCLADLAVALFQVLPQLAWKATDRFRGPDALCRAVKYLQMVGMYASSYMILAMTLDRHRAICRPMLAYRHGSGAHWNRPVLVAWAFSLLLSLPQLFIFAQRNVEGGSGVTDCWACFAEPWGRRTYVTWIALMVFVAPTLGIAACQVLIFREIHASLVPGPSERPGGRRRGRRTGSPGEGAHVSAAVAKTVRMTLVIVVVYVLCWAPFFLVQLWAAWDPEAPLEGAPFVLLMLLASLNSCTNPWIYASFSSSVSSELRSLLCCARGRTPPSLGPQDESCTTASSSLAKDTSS
# Description: Reaction mixtures contained 50 mM Tris-HCl, pH 7.4, 10 mM MgCl2 and 1 g/L BSA in a final volume of 100 μL. Plates were incubated for 3 h at room temperature. Binding reactions were stopped by filtration through a GF/C filter pre-soaked in 0.5% polyethyleneimine on a cell harvester ([sequence], Courtaboeuf, France) and plates were dried. […] A one-site inhibition mass action curve was fitted to inhibition binding data using Kaleidagraph (SYNERGY SOFTWARE, Reading, Pa., USA).
# hV2-Rluc receptor = target: T6, hV2-Rluc receptor (Homo sapiens, UniProt P30518); test: β-arrestin-1-YFP mobilization (BRET) to V2-Rluc in tsA cells; type: cell-based
# T6 construct: expressed in transfected cells; host or cells: tsA cells (HEK293 derivative), transiently transfected
# T6 sequence (P30518 whole entry): as above
# Description: 2.5×10^6 tsA cells, a transformed human kidney (HEK293) cell line stably expressing an SV40 temperature sensitive T antigen (ECACC), transiently transfected with 150 ng of pRK5 expression plasmid for hV2Rluc ([sequence] #556104, BD BIOSCIENCE; Terrillon et al., Mol. Endocrinol., 2003, 17, 677-691) and with 1 μg of an expression plasmid for β-arrestin-1-YFP ((β-arrestin cloned into pEYFP-N1 (CLONTECH); Scott et al., J. Biol. Chem., 2002, 277, 3552-3559) were seeded in 6-well plates. 48 h after transfection, cells were washed with KREBS buffer containing 146 mM NaCl, 4.2 mM KCl, 0.5 mM MgCl2, 1 mM CaCl2, 10 mM HEPES pH 7.4, 1 mg/ml glucose and resuspended in 1 ml of this buffer. Bioluminescence Resonance Energy Transfer (BRET™) measurements between the V2-Rluc and β-arrestin-1-YFP were performed in 96-well plates with a final volume of 50 μl containing 30 μl of cell suspension (75,000 cells), 10 μl of KREBS buffer (control condition) or the mix of ligands containing either increasing concentrations of vasopressin (stimulated control condition) or in the presence of increasing concentrations of toxin (stimulated condition with inhibitor).
# V1aR = V1aR (Homo sapiens, UniProt P37288); test: 3H-AVP competition binding on V1aR membranes; details: toxin at 1 μM
# V1aR, sequence (P37288 whole entry): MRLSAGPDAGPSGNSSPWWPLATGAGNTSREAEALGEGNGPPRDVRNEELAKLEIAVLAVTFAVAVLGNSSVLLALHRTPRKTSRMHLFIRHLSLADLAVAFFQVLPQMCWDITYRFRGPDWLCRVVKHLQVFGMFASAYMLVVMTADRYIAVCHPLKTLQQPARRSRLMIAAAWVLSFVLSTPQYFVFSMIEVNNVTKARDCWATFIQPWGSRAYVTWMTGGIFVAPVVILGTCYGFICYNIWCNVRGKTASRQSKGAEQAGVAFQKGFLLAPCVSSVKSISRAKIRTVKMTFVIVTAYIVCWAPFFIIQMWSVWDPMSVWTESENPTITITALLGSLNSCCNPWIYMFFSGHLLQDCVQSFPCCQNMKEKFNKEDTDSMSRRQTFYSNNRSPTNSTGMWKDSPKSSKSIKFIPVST
# Description: as §2
# CD1^pcy/pcy mice [2] = test: Cyst formation in pcy mice (kidney weight, cyst number); type: in vivo, mouse; details: 0.1 μmol/kg/day i.p., 99 days
# Description: The toxin was dissolved in 0.9% NaCl at a concentration of 1 mg/ml. 10 week-old CD1^pcy/pcy mice were injected intraperitoneally with the toxin at a dose of 0.1 μmol toxin/kg of body weightday for 99 days. Then the mice were perfusion-fixed with 4% paraformaldehyde/1× phosphate-buffered saline, the kidneys and hearts were taken out and weighed. Then, the ratio of kidney weight or heart weightbody weight and kidney weightheart weight was calculated to evaluate an effect of the toxin on cyst formation. The kidneys were embedded in paraffin. Transverse kidney sections were stained with hematoxylin and eosin. Cyst number was determined using the program ImageJ and related to the size of the section thus arriving at the relative cyst number.
# 157 GPCRs = test: FLIPR agonist/antagonist profiling on 157 GPCRs; type: cell-based; details: 1 μM U-Da2a
# Description: Percentage activation and percentage inhibition values were determined on each GPCR. […] Percentage inhibition values were determined upon addition of a reference agonist at an estimated EC80 concentration. All wells were prepared using EMD Millipore's GPCRProfiler® Assay Buffer. The GPCRProfiler® Assay Buffer was a modified Hanks Balanced Salt Solution (HBSS) where HBSS was supplemented to contain 20 mM HEPES and 2.5 mM Probenecid at pH7.4. […] The agonist assay was a total of 180 seconds and was used to assess each compound's ability to activate each GPCR assayed. […] The antagonist assay was conducted using the same assay plate and the same apparatus that was used for the agonist assay. All assay plate data were subjected to appropriate baseline corrections. After baseline corrections were applied, maximum fluorescence values were exported and data processed to calculate percentage activation (relative to Emax reference agonist and vehicle control values), percentage inhibition (relative to EC80 and vehicle control values), and additional statistical values (i.e. Z′, percentage variation between replicate data values) to assess the quality of each plate. Where assay plate data were rejected, additional experiments were conducted.
# CD1^pcy/pcy mice [3] = test: Long-term administration experiment (99 days); type: in vivo, mouse; details: 0.1 μmol/kg/day i.p.
# Description: The toxin was dissolved in 0.9% NaCl at a concentration of 1 mg/ml and administered intraperitoneally to adult CD1^pcy/pcy mice at a dose of 0.1 μmol/kg/day. At 0, 30 70 and 99 days, urine was collected for 24 hours in metabolic cages and urine volume and urine osmolarity were determined.
# T1 sequence (Q14524 whole entry): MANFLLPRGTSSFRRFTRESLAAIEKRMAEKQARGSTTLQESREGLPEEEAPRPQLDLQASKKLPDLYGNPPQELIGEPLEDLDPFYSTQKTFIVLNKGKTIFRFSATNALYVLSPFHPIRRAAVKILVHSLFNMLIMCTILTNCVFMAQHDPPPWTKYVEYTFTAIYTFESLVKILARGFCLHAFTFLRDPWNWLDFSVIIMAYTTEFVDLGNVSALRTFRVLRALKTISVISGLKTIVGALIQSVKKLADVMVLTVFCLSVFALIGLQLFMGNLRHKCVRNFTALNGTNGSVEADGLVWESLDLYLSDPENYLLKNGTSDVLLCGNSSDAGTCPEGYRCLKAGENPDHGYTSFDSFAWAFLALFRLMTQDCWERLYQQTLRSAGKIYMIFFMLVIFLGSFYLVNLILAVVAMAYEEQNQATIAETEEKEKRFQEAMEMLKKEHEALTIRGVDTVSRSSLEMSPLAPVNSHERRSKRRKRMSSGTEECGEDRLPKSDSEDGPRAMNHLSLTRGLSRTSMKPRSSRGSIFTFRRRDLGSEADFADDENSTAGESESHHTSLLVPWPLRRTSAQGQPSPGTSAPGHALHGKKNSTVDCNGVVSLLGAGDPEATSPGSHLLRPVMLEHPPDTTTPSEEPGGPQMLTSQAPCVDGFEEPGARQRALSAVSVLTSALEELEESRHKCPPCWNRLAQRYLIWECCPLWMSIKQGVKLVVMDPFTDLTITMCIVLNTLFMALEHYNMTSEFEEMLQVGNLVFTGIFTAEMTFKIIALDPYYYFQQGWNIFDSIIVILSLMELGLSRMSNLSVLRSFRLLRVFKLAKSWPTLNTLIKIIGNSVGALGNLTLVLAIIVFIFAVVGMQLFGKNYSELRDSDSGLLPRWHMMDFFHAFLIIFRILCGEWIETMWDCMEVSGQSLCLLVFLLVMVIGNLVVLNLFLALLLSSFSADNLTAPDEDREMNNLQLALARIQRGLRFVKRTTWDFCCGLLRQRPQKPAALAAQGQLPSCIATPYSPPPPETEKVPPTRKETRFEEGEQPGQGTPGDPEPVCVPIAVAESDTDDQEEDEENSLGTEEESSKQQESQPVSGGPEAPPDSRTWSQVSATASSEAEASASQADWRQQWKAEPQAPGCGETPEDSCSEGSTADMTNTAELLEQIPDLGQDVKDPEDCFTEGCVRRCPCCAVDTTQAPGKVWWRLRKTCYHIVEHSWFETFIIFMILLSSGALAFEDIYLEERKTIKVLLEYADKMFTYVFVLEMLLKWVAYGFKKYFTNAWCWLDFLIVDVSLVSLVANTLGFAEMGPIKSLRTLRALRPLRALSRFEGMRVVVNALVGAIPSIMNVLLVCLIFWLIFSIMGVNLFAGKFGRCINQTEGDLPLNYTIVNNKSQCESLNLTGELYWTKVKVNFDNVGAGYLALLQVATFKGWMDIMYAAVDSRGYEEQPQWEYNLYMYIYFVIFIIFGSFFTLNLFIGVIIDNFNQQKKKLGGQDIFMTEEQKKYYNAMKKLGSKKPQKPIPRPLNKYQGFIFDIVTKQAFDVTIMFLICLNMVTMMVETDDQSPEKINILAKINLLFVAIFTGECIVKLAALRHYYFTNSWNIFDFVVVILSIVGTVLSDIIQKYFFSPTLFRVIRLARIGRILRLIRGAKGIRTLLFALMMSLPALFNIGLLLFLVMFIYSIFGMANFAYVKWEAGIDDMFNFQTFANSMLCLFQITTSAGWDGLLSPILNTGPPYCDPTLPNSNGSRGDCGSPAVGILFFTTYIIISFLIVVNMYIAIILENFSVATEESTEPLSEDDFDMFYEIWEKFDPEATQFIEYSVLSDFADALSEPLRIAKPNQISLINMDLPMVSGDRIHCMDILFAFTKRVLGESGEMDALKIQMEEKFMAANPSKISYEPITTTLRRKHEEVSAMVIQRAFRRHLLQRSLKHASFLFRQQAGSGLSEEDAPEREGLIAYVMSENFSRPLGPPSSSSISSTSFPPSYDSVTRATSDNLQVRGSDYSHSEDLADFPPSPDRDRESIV
smiles,measurement,setting,value
CC[C@H](C)[C@@H]1NC(=O)[C@H]([C@@H](C)O)NC(=O)[C@H](CO)NC(=O)[C@H](Cc2ccccc2)NC(=O)[C@H](CCCNC(=N)N)NC(=O)[C@H](CC(N)=O)NC(=O)[C@H](C)NC(=O)[C@H](CC(N)=O)NC(=O)CNC(=O)[C@H](CCCCN)NC(=O)[C@@H]2CSSC[C@@H]3NC(=O)[C@@H]4CCCN4C(=O)CNC(=O)[C@@H]4CCCN4C(=O)[C@H](CCCCN)NC(=O)[C@H](C(C)C)NC(=O)[C@@H]4CCCN4C(=O)[C@H](CC(C)C)NC(=O)[C@H](CC(N)=O)NC(=O)[C@@H](NC(=O)[C@H](Cc4ccccc4)NC(=O)[C@H](CO)NC(=O)[C@@H]4CCCN4C(=O)[C@@H](N)CCCNC(=N)N)CSSC[C@@H](C(=O)N[C@H](C(=O)NCC(=O)O)C(C)C)NC(=O)[C@H]([C@@H](C)O)NC(=O)[C@H](CCCNC(=N)N)NC(=O)[C@H](CCCNC(=N)N)NC(=O)[C@H](CSSC[C@H](NC(=O)[C@H](CCCCN)NC(=O)[C@H](CC(N)=O)NC(=O)[C@H]([C@@H](C)O)NC(=O)[C@H](CCCCN)NC(=O)[C@H](CCC(N)=O)NC(=O)[C@H](CO)NC(=O)[C@H](Cc4ccc(O)cc4)NC(=O)[C@H](Cc4ccc(O)cc4)NC(=O)[C@H](Cc4ccccc4)NC(=O)[C@H](C)NC(=O)[C@H](CO)NC(=O)[C@H](Cc4ccccc4)NC(=O)[C@H](Cc4ccccc4)NC(=O)CNC(=O)[C@H](CC(N)=O)NC3=O)C(=O)N[C@@H](Cc3c[nH]cn3)C(=O)N[C@@H](CO)C(=O)N[C@@H](Cc3ccccc3)C(=O)N[C@@H]([C@@H](C)O)C(=O)N[C@@H](Cc3ccc(O)cc3)C(=O)NCC(=O)NCC(=O)N2)NC(=O)[C@H](CCCCN)NC(=O)[C@H](CCC(=O)O)NC1=O [U-Da2a],inhibition of Nav1.5,Nav1.5,did not appear to exhibit significant inhibition
same,inhibition of Kv1.5,Kv1.5,did not appear to exhibit significant inhibition
same,inhibition of hERG,hERG,did not appear to exhibit significant inhibition
same,inhibition of Cav1.2,Cav1.2,did not appear to exhibit significant inhibition
same,inhibition of 3H-AVP binding to V1bR,V1bR,did not inhibit
same,Ki,[1],2 to 5 nM
same,Kb,hV2-Rluc receptor,100 nM
same,inhibition of 3H-AVP binding to V1aR,V1aR,did not inhibit
same,kidney weight,CD1^pcy/pcy mice [2],reduces kidney weight
same,number of cysts,CD1^pcy/pcy mice [2]; histology,significantly reduces the number of cysts
same,agonist and antagonist activity on 157 GPCRs,157 GPCRs,detected only on V2R
same,toxic effect after long-term daily injections,CD1^pcy/pcy mice [3],No toxic effect was detectable
